Data set [1] deals with genotype 1b (Con-1) HCV replicon. Nature of the data set: HCV Replicon Luciferase Assay. The format is cell-based. The settings on record: Hepatitis C virus, 72 h, Huh-7 genotype 1b replicon, Renilla luciferase, 3 days incubation. The method, then:
The cell lines used to evaluate compounds consist of a human hepatocyte derived cell line (Huh-7) that constitutively expresses a genotype 1b (Con-1) HCV replicon or a genotype 1b (Con-1) HCV replicon with an asparagine replacing the cysteine at amino acid 316, or a genotype 2a (JFH-1) replicon, containing a Renilla luciferase reporter gene. These cells were maintained in Dulbecco's modified Eagle medium (DMEM) containing 10% FBS, 100 U/mL penicillin/streptomycin and 1.0 mg/mL G418.
To evaluate compound efficacy, titrated compounds were transferred to sterile 384-well tissue culture treated plates, and the plates were seeded with HCV replicon cells (50 μL at a density of 2.4×10^3 cells/well) in DMEM containing 4% FBS (final DMSO concentration at 0.5%). After 3 days incubation at 37° C., cells were analyzed for Renilla Luciferase activity using the EnduRen substrate (Promega cat #E6485) according to the manufacturer's directions. Briefly, the EnduRen substrate was diluted in DMEM and then added to the plates to a final concentration of 7.5 μM. The plates were incubated for at least 1 h at 37° C. then read on a Viewlux Imager (PerkinElmer) using a luminescence program. The 50% effective concentration (EC50) was calculated using the four-parameter logistic Formula noted above.
Compound EC50 data is expressed as A: <100 nM; B=100-1000 nM; C>1000 nM).
In general terms: In antiviral work, replicon cells carry a viral genome segment that copies itself.

Data set [2] deals with HCV. To be noted: cited from earlier work.

Consider 20 compounds from US10125111B2, “Benzofuran compounds for the treatment of hepatitis C” (BRISTOL-MYERS SQUIBB COMPANY, priority 2015, dated 2018).

Like-named read-outs stand apart in the source and are kept apart here.

Turning to `CNC(=O)c1c(-c2ccc(F)cc2)oc2cc(NCCCF)c(-c3cccc(C(=O)NC(C)(C)C(F)(F)F)c3)cc12` [Compound 5005], in data set [1] (read-out: EC50 1b (class)), the 50% effective concentration (EC50) (as a rule, the concentration that produces a half-maximal response) is under 0.1 µM. As to `CNC(=O)c1c(-c2ccc(F)cc2)oc2cc(NCCCF)c(-c3cccc(C(=O)NC(CF)(CF)CF)c3)cc12` [Compound 5006], the EC50 was under 0.1 µM in data set [1] (read-out: EC50 1b (class)) and 0.0094 µM in data set [1] (read-out: EC50 (uM) 1b). For `CNC(=O)c1c(-c2ccc(F)cc2)oc2cc(N(C(F)F)S(C)(=O)=O)c(-c3cccc(C(=O)OC)c3)cc12` [Compound 6001], the EC50 in data set [1] (read-out: EC50 1b (class)) was under 0.1 µM.

As to `CNC(=O)c1c(-c2ccc(F)cc2)oc2cc(N(C(F)F)S(C)(=O)=O)c(-c3cccc(C(=O)O)c3)cc12` [Compound 6002], the EC50 is over 1 µM in data set [1] (read-out: EC50 1b (class)) and over 10 µM in data set [1] (read-out: EC50 (uM) 1b). As to `CNC(=O)c1c(-c2ccc(F)cc2)oc2cc(N(C(F)F)S(C)(=O)=O)c(-c3cccc(C(=O)NC(C)(C)C(F)(F)F)c3)cc12` [Compound 6003], the EC50 in data set [1] (read-out: EC50 1b (class)) is under 0.1 µM; in data set [1] (read-out: EC50 (uM) 1b), 0.0095 µM. Regarding `CNC(=O)c1c(-c2ccc(F)cc2)oc2cc(N(C(F)F)S(C)(=O)=O)c(-c3cccc(C(=O)NC(C)(C)C#N)c3)cc12` [Compound 6004], the concentration giving a half-maximal response (EC50) in data set [1] (read-out: EC50 1b (class)) was under 0.1 µM. Regarding `CNC(=O)c1c(-c2ccc(F)cc2)oc2cc(N(C(F)F)S(C)(=O)=O)c(-c3cccc(C(=O)NC(CF)(CF)CF)c3)cc12` [Compound 6005], the concentration giving a half-maximal response (EC50) in data set [1] (read-out: EC50 1b (class)) is under 0.1 µM. Regarding `[2H]C([2H])([2H])C(NC(=O)c1cccc(-c2cc3c(C(=O)NC)c(-c4ccc(F)cc4)oc3cc2N(C(F)F)S(C)(=O)=O)c1)(C([2H])([2H])[2H])C([2H])([2H])[2H]` [Compound 6006], the concentration giving a half-maximal response (EC50) in data set [1] (read-out: EC50 1b (class)) is under 0.1 µM.

Turning to `CNC(=O)c1c(-c2ccc(F)cc2)oc2cc(N(CC(F)F)S(C)(=O)=O)c(-c3cccc(C(=O)OC)c3)cc12` [Compound 7001], the EC50 in data set [1] (read-out: EC50 1b (class)) is under 0.1 µM. With `CNC(=O)c1c(-c2ccc(F)cc2)oc2cc(N(CC(F)F)S(C)(=O)=O)c(-c3cccc(C(=O)NC(C)(C)C(F)(F)F)c3)cc12` [Compound 7003], the half-maximal effective concentration (EC50) in data set [1] (read-out: EC50 1b (class)) was under 0.1 µM. `CNC(=O)c1c(-c2ccc(F)cc2)oc2cc(N(CC(F)F)S(C)(=O)=O)c(-c3cccc(C(=O)NC(CF)(CF)CF)c3)cc12` [Compound 7004]: in data set [1] (read-out: EC50 1b (class)), the concentration for a half-maximal effect (EC50) was under 0.1 µM.

`CNC(=O)c1c(-c2ccc(F)cc2)oc2cc(N(CC=C(F)F)S(C)(=O)=O)c(-c3cccc(C(=O)OC)c3)cc12` [Compound 8001]: the EC50 in data set [1] (read-out: EC50 1b (class)) is under 0.1 µM. Turning to `CNC(=O)c1c(-c2ccc(F)cc2)oc2cc(N(CCC(F)(F)F)S(C)(=O)=O)c(-c3cccc(C(=O)O)c3)cc12` [Compound 9002], in data set [1] (read-out: EC50 1b (class)), the EC50 is over 1 µM. For `CNC(=O)c1c(-c2ccc(F)cc2)oc2cc(N(CCC(F)(F)F)S(C)(=O)=O)c(-c3cccc(C(=O)NCC(F)(F)C(F)(F)F)c3)cc12` [Compound 9003], the results for the EC50 in data set [1] (read-out: EC50 1b (class)) and in data set [1] (read-out: EC50 (uM) 1b) were under 0.1 µM and 0.0076 µM, respectively. In the case of `CNC(=O)c1c(-c2ccc(F)cc2)oc2cc(N(CCC(F)(F)F)S(C)(=O)=O)c(-c3cccc(C(=O)NC(C)(C)C(F)(F)F)c3)cc12` [Compound 9004], the EC50 in data set [1] (read-out: EC50 1b (class)) is under 0.1 µM; in data set [1] (read-out: EC50 (uM) 1b) it was 0.0106 µM. Take `CNC(=O)c1c(-c2ccc(F)cc2)oc2cc(N(CCC(F)(F)F)S(C)(=O)=O)c(-c3cccc(C(=O)NC(CF)(CF)CF)c3)cc12` [Compound 9005]: the EC50 in data set [1] (read-out: EC50 1b (class)) is under 0.1 µM. As to `CNC(=O)c1c(-c2ccc(F)cc2)oc2cc(N(CCC(F)(F)F)S(C)(=O)=O)c(-c3cccc(C(=O)NC(C)(C)C#N)c3)cc12` [Compound 9006], the concentration giving a half-maximal response (EC50) in data set [1] (read-out: EC50 1b (class)) is under 0.1 µM.

In the case of `CNC(=O)c1c(-c2ccc(F)cc2)oc2cc(N(CCC(F)(F)F)S(C)(=O)=O)c(-c3cccc(C(=O)NC(C)(C)CF)c3)cc12` [Compound 9007], the EC50 in data set [1] (read-out: EC50 1b (class)) is under 0.1 µM. Take `CNC(=O)c1c(-c2ccc(F)cc2)oc2cc(N(CCO)S(C)(=O)=O)c(C3CC3)cc12` [HCV-796]: the “toxicity during extended dosing” value in data set [2] (combination regimens with interferon and ribavirin) was “hepatic toxicity”.

For alpha-interferon and ribavirin, the “sustained efficacy, patients” value in data set [2] (combination therapy, patients) is 40%.
